Biological target: T1, human PAH with the R408W mutation (A375 R408W cells) (Homo sapiens, UniProt P00439, R408W)
T1 construct: expressed in transfected cells
T1 sequence (P00439 1-452 R408W): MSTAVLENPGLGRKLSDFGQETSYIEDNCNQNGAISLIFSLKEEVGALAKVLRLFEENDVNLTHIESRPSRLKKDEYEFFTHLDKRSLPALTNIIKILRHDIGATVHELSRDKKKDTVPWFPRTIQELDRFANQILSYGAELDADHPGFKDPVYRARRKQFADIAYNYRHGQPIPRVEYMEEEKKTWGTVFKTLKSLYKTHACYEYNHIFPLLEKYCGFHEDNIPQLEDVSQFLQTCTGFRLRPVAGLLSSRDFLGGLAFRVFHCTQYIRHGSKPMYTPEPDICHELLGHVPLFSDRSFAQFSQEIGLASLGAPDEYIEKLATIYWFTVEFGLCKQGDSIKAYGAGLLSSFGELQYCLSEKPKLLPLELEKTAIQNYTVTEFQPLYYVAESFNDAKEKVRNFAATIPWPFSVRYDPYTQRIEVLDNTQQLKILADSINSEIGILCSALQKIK
Assay: Cell Based Phenylalanine Flux Assay
Details: A375 R408W cells; 24 hrs with compound, then 20 μM sepiapterin and 800 μM 13C9,15N-Phenylalanine for 4 hours; 13C-Tyrosine by LC-MS; average where tested multiple times
Outline: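 LC-MS quantitation of 13C-tyrosine in media gave AC50 values. Stable A375 R408W PAH cells were preincubated 24 h with compound, then fed 800 μM labelled Phe plus 20 μM sepiapterin for 4 h. Dose curves were 10-point, tested in duplicate, averaged over repeat runs.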

| AC50 [µM] | Structure (SMILES) |
| --- | --- |
| 0.5 to 1 | O=C(c1cnn2cc(N3CCC4(CC3)CC4)ccc12)N1CCc2[nH]cnc2[C@H]1c1nc2c(F)cccc2o1 [Example 505, (S)-(6-(6-azaspiro[2.5]octan-6-yl)pyrazolo[1,5-a]pyridin-3-yl)(4-(4-fluorobenzo[d]oxazol-2-yl)-6,7-dihydro-1H-imidazo[4,5-c]pyridin-5(4H)-yl)methanone] |
| 0.5 to 1 | O=C(c1ccnn1C(F)F)N1CCc2[nH]cnc2[C@H]1c1nc2ccc(F)cc2o1 [Example 189, (S)-(1-(difluoromethyl)-1H-pyrazol-5-yl)(4-(6-fluorobenzo[d]oxazol-2-yl)-6,7-dihydro-1H-imidazo[4,5-c]pyridin-5(4H)-yl)methanone] |
| ≤ 0.5 | COc1cccc2oc([C@@H]3c4nc[nH]c4CCN3C(=O)c3ocnc3C(F)F)nc12 [Example 429, (S)-(4-(difluoromethyl)oxazol-5-yl)(4-(4-methoxybenzo[d]oxazol-2-yl)-6,7-dihydro-1H-imidazo[4,5-c]pyridin-5(4H)-yl)methanone] |
| ≤ 0.5 | Cc1cccc2oc([C@@H]3c4nc[nH]c4CCN3C(=O)c3cnn4cc(N5CCC(O)CC5)ccc34)nc12 [Example 701, (S)-(6-(4-hydroxypiperidin-1-yl)pyrazolo[1,5-a]pyridin-3-yl)(4-(4-methylbenzo[d]oxazol-2-yl)-6,7-dihydro-1H-imidazo[4,5-c]pyridin-5(4H)-yl)methanone] |
| 1 to 5 | CC(C)(O)c1ncc(C(=O)N2CCc3[nH]cnc3[C@@H]2c2nc3c(F)cccc3o2)o1 [Example 894, (R)-(4-(4-fluorobenzo[d]oxazol-2-yl)-6,7-dihydro-1H-imidazo[4,5-c]pyridin-5(4H)-yl)(2-(2-hydroxypropan-2-yl)oxazol-5-yl)methanone] |
| 1 to 5 | Cc1ccc2nc([C@H]3c4nc[nH]c4CCN3C(=O)c3nnc(-c4ncccc4F)o3)oc2c1 [Example 680, (R)-(5-(3-fluoropyridin-2-yl)-1,3,4-oxadiazol-2-yl)(4-(6-methylbenzo[d]oxazol-2-yl)-6,7-dihydro-1H-imidazo[4,5-c]pyridin-5(4H)-yl)methanone] |
| 1 to 5 | O=C(c1ccnn1C(F)(F)F)N1CCc2[nH]cnc2[C@@H]1c1nc2cccc(F)c2o1 [Example 290, (R)-(4-(7-fluorobenzo[d]oxazol-2-yl)-6,7-dihydro-1H-imidazo[4,5-c]pyridin-5(4H)-yl)(1-(trifluoromethyl)-1H-pyrazol-5-yl)methanone] |
| 1 to 5 | CC(F)(F)c1ncoc1C(=O)N1CCc2[nH]cnc2[C@@H]1c1nc2cccc(F)c2o1 [Example 619, (R)-(4-(1,1-difluoroethyl)oxazol-5-yl)(4-(7-fluorobenzo[d]oxazol-2-yl)-6,7-dihydro-1H-imidazo[4,5-c]pyridin-5(4H)-yl)methanone] |
| 0.5 to 1 | O=C(c1ocnc1C(F)F)N1CCc2[nH]cnc2[C@@H]1c1nc2c(F)cccc2o1 [Example 170, (R)-(4-(difluoromethyl)oxazol-5-yl)(4-(4-fluorobenzo[d]oxazol-2-yl)-6,7-dihydro-1H-imidazo[4,5-c]pyridin-5(4H)-yl)methanone] |
| ≤ 0.5 | O=C(c1oc(-c2ccccn2)nc1C(F)(F)F)N1CCc2[nH]cnc2[C@@H]1c1nc2cccc(F)c2o1 [Example 637, (R)-(4-(7-fluorobenzo[d]oxazol-2-yl)-6,7-dihydro-1H-imidazo[4,5-c]pyridin-5(4H)-yl)(2-(pyridin-2-yl)-4-(trifluoromethyl)oxazol-5-yl)methanone] |
| ≤ 0.5 | O=C(c1ocnc1C(F)(F)F)N1CCc2[nH]cnc2[C@@H]1c1nc2ccc(Br)cc2o1 [Example 144, (R)-(4-(6-bromobenzo[d]oxazol-2-yl)-6,7-dihydro-1H-imidazo[4,5-c]pyridin-5(4H)-yl)(4-(trifluoromethyl)oxazol-5-yl)methanone] |
| ≤ 0.5 | O=C(c1oc(-c2ccc(C(F)(F)F)cn2)nc1C(F)F)N1CCc2[nH]cnc2[C@@H]1c1nc2cccc(F)c2o1 [Example 634, (R)-(4-(difluoromethyl)-2-(5-(trifluoromethyl)pyridin-2-yl)oxazol-5-yl)(4-(7-fluorobenzo[d]oxazol-2-yl)-6,7-dihydro-1H-imidazo[4,5-c]pyridin-5(4H)-yl)methanone] |
| 0.5 to 1 | CC(F)(F)c1ncoc1C(=O)N1CCc2[nH]cnc2[C@@H]1c1nc2ccc(F)cc2o1 [Example 650, (R)-(4-(1,1-difluoroethyl)oxazol-5-yl)(4-(6-fluorobenzo[d]oxazol-2-yl)-6,7-dihydro-1H-imidazo[4,5-c]pyridin-5(4H)-yl)methanone] |
| ≤ 0.5 | O=C(c1ccnn1C(F)F)N1CCc2[nH]cnc2[C@H]1c1nc2c(F)ccc(F)c2o1 [Example 487, (S)-(4-(4,7-difluorobenzo[d]oxazol-2-yl)-6,7-dihydro-1H-imidazo[4,5-c]pyridin-5(4H)-yl)(1-(difluoromethyl)-1H-pyrazol-5-yl)methanone] |
| ≤ 0.5 | [2H]C([2H])([2H])OCc1nc(C(F)F)c(C(=O)N2CCc3[nH]cnc3[C@H]2c2nc3cc(F)ccc3o2)o1 [Example 155, (S)-(4-(difluoromethyl)-2-((methoxy-d3)methyl)oxazol-5-yl)(4-(5-fluorobenzo[d]oxazol-2-yl)-1,4,6,7-tetrahydro-5H-imidazo[4,5-c]pyridin-5-yl)methanone] |
| ≤ 0.5 | O=C(c1oc(-c2ccccn2)nc1C(F)(F)F)N1CCc2[nH]cnc2[C@@H]1c1nc2cc(F)ccc2o1 [Example 50, (R)-(4-(5-fluorobenzo[d]oxazol-2-yl)-6,7-dihydro-1H-imidazo[4,5-c]pyridin-5(4H)-yl)(2-(pyridin-2-yl)-4-(trifluoromethyl)oxazol-5-yl)methanone] |
| 1 to 5 | Cn1cc(-c2ccc3c(C(=O)N4CCc5[nH]cnc5[C@@H]4c4nc5c(F)cccc5o4)cnn3c2)cn1 [Example 542, (R)-(4-(4-fluorobenzo[d]oxazol-2-yl)-6,7-dihydro-1H-imidazo[4,5-c]pyridin-5(4H)-yl)(6-(1-methyl-1H-pyrazol-4-yl)pyrazolo[1,5-a]pyridin-3-yl)methanone] |
| ≤ 0.5 | O=C(c1ocnc1C(F)F)N1CCc2[nH]cnc2[C@H]1c1nc2c(F)cccc2o1 [Example 169, (S)-(4-(difluoromethyl)oxazol-5-yl)(4-(4-fluorobenzo[d]oxazol-2-yl)-6,7-dihydro-1H-imidazo[4,5-c]pyridin-5(4H)-yl)methanone] |
| 1 to 5 | CN1CCN(c2ccc3c(C(=O)N4CCc5[nH]cnc5[C@@H]4c4nc5cccc(F)c5o4)cnn3c2)CC1 [Example 364, (R)-(4-(7-fluorobenzo[d]oxazol-2-yl)-6,7-dihydro-1H-imidazo[4,5-c]pyridin-5(4H)-yl)(6-(4-methylpiperazin-1-yl)pyrazolo[1,5-a]pyridin-3-yl)methanone] |
| 0.5 to 1 | Cn1cc(-c2nnc(C(=O)N3CCc4[nH]cnc4[C@H]3c3nc4c(F)cc(F)cc4o3)o2)cn1 [Example 522, (S)-(4-(4,6-difluorobenzo[d]oxazol-2-yl)-6,7-dihydro-1H-imidazo[4,5-c]pyridin-5(4H)-yl)(5-(1-methyl-1H-pyrazol-4-yl)-1,3,4-oxadiazol-2-yl)methanone] |
| 1 to 5 | Cn1nc(C2CC2)nc1C(=O)N1CCc2[nH]cnc2[C@H]1c1nc2cccc(F)c2o1 [Example 497, (S)-(3-cyclopropyl-1-methyl-1H-1,2,4-triazol-5-yl)(4-(7-fluorobenzo[d]oxazol-2-yl)-6,7-dihydro-1H-imidazo[4,5-c]pyridin-5(4H)-yl)methanone] |
| 1 to 5 | COc1cccc2oc([C@H]3c4nc[nH]c4CCN3C(=O)c3ccnn3C(F)F)nc12 [Example 604, (R)-(1-(difluoromethyl)-1H-pyrazol-5-yl)(4-(4-methoxybenzo[d]oxazol-2-yl)-6,7-dihydro-1H-imidazo[4,5-c]pyridin-5(4H)-yl)methanone] |
| 1 to 5 | CC1CN(C(=O)c2ocnc2C(F)F)[C@@H](c2nc3cccc(F)c3o2)c2nc[nH]c21 (single isomer, unassigned) [Example 806] |
| 1 to 5 | O=C(c1cnn(-c2ccccn2)c1)N1CCc2[nH]cnc2[C@H]1c1nc2cc(F)ccc2o1 [Example 879, (S)-(4-(5-fluorobenzo[d]oxazol-2-yl)-6,7-dihydro-1H-imidazo[4,5-c]pyridin-5(4H)-yl)(1-(pyridin-2-yl)-1H-pyrazol-4-yl)methanone] |

Same assay, conditions: A375 cells expressing R408W PAH; 24 hrs with compound, then 20 μM sepiapterin and 800 μM 13C9,15N-Phenylalanine for 4 hours; 13C-Tyrosine by LC-MS; average where tested multiple times

| AC50 [µM] | Structure (SMILES) |
| --- | --- |
| 1 to 5 | Cn1nc(C(C)(C)C)cc1C(=O)N1CCc2[nH]cnc2C1c1nc2ccccc2o1 (stereo not shown) |
| 1 to 5 | CC(C)(O)c1nc(Br)c(C(=O)N2CCc3[nH]cnc3C2c2nc3cc(F)ccc3o2)s1 (stereo not shown) |
| 1 to 5 | CN(C)c1nnc(C(=O)N2CCc3[nH]cnc3C2c2nc3cc(F)ccc3o2)o1 (stereo not shown) |
| 1 to 5 | CC(C)(O)c1cc(C(=O)N2CCc3[nH]cnc3C2c2nc3cccc(F)c3o2)no1 (stereo not shown) |
| 1 to 5 | O=C(CCc1ncco1)N1CCc2[nH]cnc2C1c1nc2ccc(F)cc2o1 (stereo not shown) |
| ≥ 5 | COc1ccc2oc(C3c4nc[nH]c4CCN3C(=O)c3cnc(C(C)(C)O)o3)nc2c1 (stereo not shown) |
| 1 to 5 | Cn1nc(C(F)(F)F)nc1C(=O)N1CCc2[nH]cnc2C1c1nc2cc(F)ccc2o1 (stereo not shown) |
